Assay results: patent publication US9365851B2, “Spalt-like transcription factor 4 (SALL4) and uses thereof” (National University of Singapore, priority 2011, dated 2016)
Like-named read-outs stand apart in the source and are kept apart here.

Assays:
SNU-398 cells = assay: Subcutaneous transplantation of peptide pre-treated SNU-398 cells into NOD/SCID mice; assay type: in vivo; details: for subcutaneous tumor volume / size: cells treated in vitro with 20 μM peptide
Protocol: Cell viability was determined 72 hours after peptide treatments. Absorbance at 490 nm is directly correlated to cell viability. Wild type functional SALL4 peptide (wt), mutant non-functional SALL4 peptide (Mut.), trichostatin A (TSA), scrambled control peptide (Scr.), wild type peptide+PTEN inhibitor SF1670 (wt+Inh.) were given to the cells at the indicated concentration. PTEN inhibitor concentration was 400 nM. (31C, 31D) Western blot analyses of the effects of peptides on PTEN, AKT, and pAKT expression on SNU-398 (31C) and SNU-387 (31D) cells 72 hours following peptide treatments. 20 μM of wt or Scr. peptide or 100 nM of TSA was used. PTEN inhibitor concentration was 400 nM. (31E) Representative images show NOD/SCID mice transplanted with Scr peptide- and wt peptide-treated SNU-398 cells (left) and the dissected subcutaneous tumors (right). Arrow indicates subcutaneous tumor. (31F) Growth curve of subcutaneous tumors (left panel) and tumor weight of tumors dissected at day 26 post-transplantation (right panel). Results are mean±s.d. n=5; * P<0.05. (31G) Representative images show NOD/SCID mice transplanted with 3 million SNU-398 cells at the left flank and treated intraperitoneally for five consecutive days with 56 mg/kg body weight TAT-Mut. peptide or 60 mg/kg body weight wt peptide (top panel) and the dissected subcutaneous tumors (bottom). (31H) Tumor weight of tumors dissected at day 18 post-transplantation and post-treatment of mice treated intraperitoneally with TAT fusion peptides as described in 5 g. Results are mean±s.d. n=5; * P<0.05.
To test the therapeutic effect of this peptide in vivo, SNU-398 cells were subjected to in vitro treatment with 20 μM of wt or Scr. peptide and transplanted the peptide-treated cells subcutaneously into the flanks of NOD/SCID mice.

MCF7 cells = assay: Cell viability assay (MTT); assay type: cell-based; details: MCF7, 48-72 h
Protocol: Cell viability assay (MTT) (Invitrogen) was performed according to the manufacturer's instructions. Briefly—10000 cells were seeded in 100 ul medium in 96 well plates. The next day cells were treated as indicated on the figures. At the designated time after the treatment 20 ul of 5 mg/ml MTT solution was added to each well. After 3.5 h incubation at 37 C the medium was removed and the reaction was terminated with a solution of 4 mM HCl, 0.1% Nondet P-40 (NP40) all in isopropanol in dark on orbital shaker for […]. at room temperature. The absorbance was read at 590 nm with a reference filter of 620 nm in Spectromax M3 (ABI) spectrophotometer.
Multiple cell lines with or without SALL4 expression were chosen to test the biological effect(s) of this wt peptide. Wt or its control (Scr or Mut) peptide was delivered into tumor cells at various concentrations, and their effects on cells were evaluated at 48 or 72 hours post treatment by a MTT assay (Manufacture name). […] Since, as proposed herein, wt peptide can compete with SALL4 and release it from recruiting HDAC complex NuRD, the wt peptide would likely work as a HDAC inhibitor. Therefore, as a positive control, TSA, a broad HDAC inhibitor, was used in the same group of experiments along with the wt and Scr peptide.

PC9 cells = assay: Peptide treatment of lung cancer cells; assay type: cell-based
Source text: 56B: Cell image after SALL4 knockdown in H522 cells.
A small peptide has been generated to block the oncogenic function of SALL4. […] Therefore, shown herein is that SALL4 plays a crucial role in tumor initiation and development of NSCLC, and targeting SALL4 may provide an innovated therapeutic approach in the treatment of lung cancer.

| Substance | subcutaneous tumor volume / size (SNU-398 cells) | cell viability (MCF7 cells) | cell growth / cell death (PC9 cells) | tumor burden (weight post-dissection) (SNU-398 cells; day 26) | cell viability (MCF7 cells; listed as wild type peptide) | cell growth / cell death (PC9 cells; listed as Wt) | cell growth / cell death (PC9 cells; listed as small peptide) |
| --- | --- | --- | --- | --- | --- | --- | --- |
| Scr peptide: same 12 amino acids as the wt peptide, but in a scrambled sequence; negative control (SRMRQKIHPKIQ) [reference compound] | grew into larger subcutaneous tumors | remained unaffected | no effect on the cells |  |  |  |  |
| H-MSRRKQAKPQHI-OH [wt peptide, MSRRKQAKPQHI] | significantly reduced | decreased cell viability |  | the tumor load was reduced | displayed the same effect | cell growth arrest | resulted in cell death |
